The results in this text go back to patent US8937073B2, “Disubstituted tetrahydrofuranyl compounds and their use as B1-receptor antagonists” (Boehringer Ingelheim International GmbH, priority 2010, dated 2015).

The term Ki denotes the dissociation constant of the complex between target and ligand, obtained from inhibition or displacement. A higher Ki goes with weaker binding.

The assay addresses T1, cynomolgus B1 receptor (Macaca fascicularis, UniProt Q3BCU0).
T1 construct: expressed in transfected cells; host or cells: CHO cells
T1 sequence (Q3BCU0 1-352): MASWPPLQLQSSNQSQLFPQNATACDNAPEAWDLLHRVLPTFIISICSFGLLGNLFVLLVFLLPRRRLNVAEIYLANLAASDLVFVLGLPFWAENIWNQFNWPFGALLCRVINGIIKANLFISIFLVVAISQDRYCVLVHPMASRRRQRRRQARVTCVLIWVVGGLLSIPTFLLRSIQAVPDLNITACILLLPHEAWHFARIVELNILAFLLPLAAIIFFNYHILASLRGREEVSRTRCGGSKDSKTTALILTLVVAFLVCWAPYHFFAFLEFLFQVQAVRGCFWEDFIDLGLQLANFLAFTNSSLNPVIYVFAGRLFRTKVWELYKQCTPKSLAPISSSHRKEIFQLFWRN
The assay can be described thus: cynoBK1-receptor binding assay. Conditions: homogenate of CHO cells expressing the cynomolgus B1 receptor; radioligand 0.5 to 5.0 nM kallidine (DesArg10,Leu9), [3,4-Prolyl-3,43H(N)]; 60-180 minutes at ambient temperature. The procedure: Description of the Method of Binding the cynoBK1-Receptor
CHO cells that express the cynomolgus B1 receptor are cultivated in “HAM′S F-12 Medium”. The medium is removed from confluent cultures, the cells are washed with PBS buffer, scraped off or detached using Versene and isolated by centrifuging. Then the cells are homogenised in suspension, the homogenate is centrifuged and resuspended. After the protein content has been determined 200 μl of the homogenate (50 to 250 μg protein/assay) are incubated for 60-180 minutes at ambient temperature with 0.5 to 5.0 nM kallidine (DesArg10,Leu9), [3,4-Prolyl-3,43H(N)] and increasing concentrations of the test substance in a total volume of 250 μl. The incubation is stopped by rapid filtration through GF/B glass fibre filters that have been pre-treated with polyethyleneimine (0.3%). The radioactivity bound to the protein is measured with a TopCount NXT. The radioactivity bound in the presence of 1.0 μM kallidine (DesArg10) is defined as non-specific binding. The concentration binding curve may be analysed using computer-aided non-linear curve fitting to determine the corresponding Ki value for the test substance.
Test Results of the cynoBK1-Receptor Binding Assay: […]
`COc1ccc(Nc2ccc(CNC(=O)[C@]3(NC(=O)c4cn[nH]c(=O)c4)CCOC3)c(F)c2)c(C(F)(F)F)c1` [Example 21]: the inhibition constant Ki turned out to be 1.6 nM. That is a single-digit nanomolar value.

As to “(S)-5-amino-N-(3-{[3-chloro-5-(4-methoxy-2-trifluoromethyl-phenylamino)-pyridin-2-yl-methyl]-carbamoyl}-tetrahydrofuran-3-yl)-nicotinamide [Example 6]”, the Ki came out at 18 nM.

The compound “(S)-5-amino-N-(3-{[3-fluoro-5-(4-methoxy-2-trifluoromethyl-phenylamino)-pyridin-2-ylmethyl]-carbamoyl}-tetrahydrofuran-3-yl)-nicotinamide [Example 3]” displayed a Ki of 4.7 nM.

For “(S)-5-amino-N-{3-[4-(4-methoxy-2-trifluoromethyl-phenylamino)-benzylcarbamoyl]-tetrahydrofuran-3-yl}-nicotinamide [Example 4]”, affinity was put at a Ki of 3.6 nM. This Ki and that of the compound before are within 1.5-fold of each other.

On to “(S)-6-oxo-1,6-dihydro-pyridazine-4-carboxylic acid-{3-[2-fluoro-4-(4-methoxy-2-trifluoromethyl-phenylamino)-benzylcarbamoyl]-tetrahydrofuran-3-yl}-amide [Example 1]”, for which affinity was put at a Ki of 1 nM. This Ki lies about 3.6-fold lower than the previous one.
